Experiments:
TANK-2 enzyme = target: T1, TANK-2 enzyme (Homo sapiens, UniProt Q9H2K2); assay: In vitro Scintillation Proximity Assay (SPA) for TANK-2 inhibitory activity; type: biochemical; conditions: read-out: in vitro SPA assay TANK-2 pIC50 (converted)
T1 construct: made in house
T1 sequence (Q9H2K2 1-1166): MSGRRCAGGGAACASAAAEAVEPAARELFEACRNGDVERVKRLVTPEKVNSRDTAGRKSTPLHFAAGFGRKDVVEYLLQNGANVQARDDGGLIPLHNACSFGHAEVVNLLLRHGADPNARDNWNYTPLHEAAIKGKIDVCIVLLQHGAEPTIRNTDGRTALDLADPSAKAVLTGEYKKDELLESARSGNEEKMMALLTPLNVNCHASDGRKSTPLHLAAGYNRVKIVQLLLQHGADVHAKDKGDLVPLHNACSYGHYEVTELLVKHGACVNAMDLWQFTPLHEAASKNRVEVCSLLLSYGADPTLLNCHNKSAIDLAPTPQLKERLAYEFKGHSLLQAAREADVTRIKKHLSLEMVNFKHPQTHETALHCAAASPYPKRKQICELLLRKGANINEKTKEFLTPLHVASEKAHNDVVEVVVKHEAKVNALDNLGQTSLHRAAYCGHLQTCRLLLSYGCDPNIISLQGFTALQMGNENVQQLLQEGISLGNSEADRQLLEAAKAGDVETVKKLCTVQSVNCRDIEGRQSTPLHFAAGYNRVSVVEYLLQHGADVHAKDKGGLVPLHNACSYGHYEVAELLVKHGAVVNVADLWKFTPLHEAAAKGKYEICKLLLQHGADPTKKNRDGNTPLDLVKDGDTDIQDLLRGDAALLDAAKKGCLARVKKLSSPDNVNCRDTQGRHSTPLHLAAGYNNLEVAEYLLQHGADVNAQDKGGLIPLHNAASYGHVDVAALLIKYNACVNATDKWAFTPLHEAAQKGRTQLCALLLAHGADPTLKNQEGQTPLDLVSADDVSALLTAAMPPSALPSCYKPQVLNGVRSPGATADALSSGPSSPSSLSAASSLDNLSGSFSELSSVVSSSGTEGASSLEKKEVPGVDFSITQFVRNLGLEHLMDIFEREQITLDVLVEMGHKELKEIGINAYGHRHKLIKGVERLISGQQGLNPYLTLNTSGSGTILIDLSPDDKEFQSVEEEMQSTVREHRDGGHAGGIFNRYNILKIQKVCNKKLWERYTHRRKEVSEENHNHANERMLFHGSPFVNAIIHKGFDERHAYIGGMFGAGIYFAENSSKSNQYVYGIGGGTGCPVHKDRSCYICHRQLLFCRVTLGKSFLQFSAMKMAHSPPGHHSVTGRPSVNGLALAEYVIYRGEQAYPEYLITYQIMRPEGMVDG
Method in brief: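 TANK-2 (8 μg/ml final) auto-poly(ADP-ribosyl)ation with [3H]-NAD+/NAD donor was run in Ni flash plates in Tris/HCl pH 7.4 buffer with DTT and MgCl2, 120 min at room temperature, then stopped with excess NAD and scintillation-counted. Blank-corrected cpm was expressed as % of enzyme control, and IC50 was linearly interpolated and reported as pIC50.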

tubulin = assay: Tubulin polymerization assay; type: biochemical; parameters: key: a compound showing 0 to 50% inhibition at 20 μM is reported as score 1; Score 2 compounds are defined as compound showing more than 50% inhibition at 20 μM and less than 50% inhibition at 5 μM; a compound showing more than 50% inhibition at 5 μM is reported as score 3; conditions: tested at 20 μM and 5 μM
Method: The tubulin polymerization assay is an adaptation of an assay originally described by Bonne, D. et al. (J. Biol. Chem., 1985, 260:2819-25). The assay kit was purchased from Cytoskeleton, Inc. (catalogue number BK011) and the assay was performed as described by the supplier with the following modifications. The assay was run in a 384-well black Proxiplate (Perkin Elmer) and volumes were adapted accordingly. The reactions were carried out in a final volume of 10 μl. Compounds were added to 25 μl of the reaction mix in 96-well PP plates (Corning) on ice and 10 μl of this mixture was dispensed into duplicates of the 384-well Proxiplates pre-warmed to 37° C. in a Fluoroskan Ascent plate reader (Thermo Scientific). Fluorescence measurements were taken every minute for one hour. The maximum slope of each well was determined (linear regression through 4 consecutive points) and polymerization was calculated as a percentage of polymerization observed in the absence of compound. Compounds were first measured at a concentration of 20 μM and then at 5 μM for those showing more than 50% inhibition at 20 μM as compared to the polymerization observed in the absence of compound. Results are reported in Table F-2 as scores defined as: a compound showing 0 to 50% inhibition at 20 μM is reported as score 1; a compound showing more than 50% inhibition at 5 μM is reported as score 3.

Which IC50 (TANK-2 enzyme) does the source give for CCc1cc2ccc(C(C)(C#N)Cc3cccc(C(=O)O)c3)cc2[nH]c1=O (stereo not drawn) [Compound 10] here?
The IC50 was 50.1 nM.

What about the melting point of the same compound?
Its melting point is greater than 260 °C.

Which results are given for CCc1cc2ccc(C(C)(C#N)Cc3ccc(F)cc3)cc2[nH]c1=O (stereo not drawn) [Compound 115]?
IC50 (TANK-2 enzyme): 31.6 nM; tubulin polymerisation score (tubulin): 2

Which IC50 (TANK-2 enzyme) does the source give for CCc1cc2ccc(C(C)(C#N)CCOc3ccccc3Br)cc2[nH]c1=O (stereo not drawn) [Compound 153] here?
The IC50 was 79.4 nM.

And the tubulin polymerisation score (tubulin)?
Its tubulin polymerisation score is 2.

What does the source list for CCc1cc2ccc(C(C)(C#N)Cc3cccc(C(=O)OC)c3)cc2[nH]c1=O (stereo not drawn) [Compound 12]?
IC50 (TANK-2 enzyme): 100 nM; melting point: 140 °C

For CCc1cc2ccc(C(C)(C#N)Cc3cccc(NC(=O)N4CCOCC4)c3)cc2[nH]c1=O (stereo not drawn) [Compound 16], which IC50 (TANK-2 enzyme) is on record?
Its IC50 is 79.4 nM.

And the melting point?
The melting point was 121 °C.

Which results are given for CCc1cc2ccc(C(C)(C#N)CC3COc4ccccc4O3)cc2[nH]c1=O (single isomer, unassigned) [Compound 48]?
IC50 (TANK-2 enzyme): 200 nM; melting point: 241 °C

Which IC50 (TANK-2 enzyme) does the source give for CCc1cc2ccc([C@@](C)(C#N)C[C@@H]3CCc4cc(C)ccc4O3)cc2[nH]c1=O [Compound 252] here?
The IC50 was 794 nM.

What about the melting point of the same compound?
The melting point was 184 °C.

For CCc1cc2ccc(C(C)(C#N)Cc3cccc(OC)c3)cc2[nH]c1=O (stereo not drawn) [Compound 113], which IC50 (TANK-2 enzyme) is on record?
The IC50 was 20 nM.

What about the tubulin polymerisation score (tubulin) of the same compound?
Its tubulin polymerisation score is 2.

For CCc1cc2ccc(C(C)(C#N)Cc3cc(F)cc(Cl)c3)cc2[nH]c1=O (stereo not drawn) [Compound 126], which IC50 (TANK-2 enzyme) is on record?
The IC50 was 100 nM.

And the tubulin polymerisation score (tubulin)?
The tubulin polymerisation score was 2.

Which IC50 (TANK-2 enzyme) does the source give for CCc1cc2ccc(C(C)(C#N)CCOc3ccc(C)cc3)cc2[nH]c1=O (stereo not drawn) [Compound 149] here?
Its IC50 is 200 nM.

And the tubulin polymerisation score (tubulin)?
Its tubulin polymerisation score is 2.

For CCc1cc2ccc(C(C)(C#N)Cc3c(F)cccc3F)cc2[nH]c1=O (stereo not drawn) [Compound 138], which IC50 (TANK-2 enzyme) is on record?
The IC50 was 63.1 nM.

What about the tubulin polymerisation score (tubulin) of the same compound?
The tubulin polymerisation score was 1 (a compound showing 0 to 50% inhibition at 20 μM is reported as score 1).

Which IC50 (TANK-2 enzyme) does the source give for CCc1cc2ccc(C(C)(C#N)Cc3cccc(F)c3)cc2[nH]c1=O (stereo not drawn) [Compound 112] here?
Its IC50 is 25.1 nM.

And the tubulin polymerisation score (tubulin)?
Its tubulin polymerisation score is 1 (a compound showing 0 to 50% inhibition at 20 μM is reported as score 1).

Which results are given for CCc1cc2ccc(C(C)(C#N)Cc3ccccc3F)cc2[nH]c1=O (stereo not drawn) [Compound 106]?
IC50 (TANK-2 enzyme): 50.1 nM; tubulin polymerisation score (tubulin): 1 (a compound showing 0 to 50% inhibition at 20 μM is reported as score 1)

For CCc1cc2ccc(C(C)(C#N)Cc3cccc(C(F)(F)F)c3)cc2[nH]c1=O (stereo not drawn) [Compound 109], which IC50 (TANK-2 enzyme) is on record?
The IC50 was 79.4 nM.

And the tubulin polymerisation score (tubulin)?
Its tubulin polymerisation score is 2.

With CCc1cc2ccc(C(C)(C#N)Cc3cccc(N)c3)cc2[nH]c1=O (stereo not drawn) [Compound 15] as the compound, how does the IC50 (TANK-2 enzyme) read?
The IC50 was 100 nM.

What about the melting point of the same compound?
The melting point was 187 °C.

Which IC50 (TANK-2 enzyme) does the source give for CCc1cc2ccc([C@](C)(C#N)C[C@@H]3CCc4cc(C)ccc4O3)cc2[nH]c1=O [Compound 251] here?
The IC50 was 316 nM.

What about the melting point of the same compound?
Its melting point is 192 °C.

With CCc1cc2ccc(C(C)(C#N)CCOc3cccc(Cl)c3)cc2[nH]c1=O (stereo not drawn) [Compound 151] as the compound, how does the IC50 (TANK-2 enzyme) read?
The IC50 was 200 nM.

What about the tubulin polymerisation score (tubulin) of the same compound?
The tubulin polymerisation score was 2.

For CCc1cc2ccc(C(C)(C#N)Cc3cc(F)cc(F)c3)cc2[nH]c1=O (stereo not drawn) [Compound 128], which IC50 (TANK-2 enzyme) is on record?
Its IC50 is 158 nM.

And the tubulin polymerisation score (tubulin)?
Its tubulin polymerisation score is 1 (a compound showing 0 to 50% inhibition at 20 μM is reported as score 1).

Which results are given for CCc1cc2ccc(C(C)(C#N)Cc3cccc(C(=O)NC)c3)cc2[nH]c1=O (stereo not drawn) [Compound 13]?
IC50 (TANK-2 enzyme): 63.1 nM; melting point: 182 °C

What does the source list for CCc1cc2ccc([C@@](C)(C#N)CCOc3ccccc3)cc2[nH]c1=O (single isomer, unassigned) [Compound 150]?
IC50 (TANK-2 enzyme): 200 nM; tubulin polymerisation score (tubulin): 2

Which IC50 (TANK-2 enzyme) does the source give for CCc1cc2ccc(C(C)(C#N)CCOc3cccc4c3OCCO4)cc2[nH]c1=O (stereo not drawn) [Compound 163] here?
The IC50 was 200 nM.

And the tubulin polymerisation score (tubulin)?
The tubulin polymerisation score was 2.

What does the source list for CCc1cc2ccc(C(C)(C#N)CCOc3ccc(C#N)cc3)cc2[nH]c1=O (stereo not drawn) [Compound 161]?
IC50 (TANK-2 enzyme): 158 nM; tubulin polymerisation score (tubulin): 2

Which results are given for CCc1cc2ccc(C(C)(C#N)Cc3cccc(-c4nc(C)no4)c3)cc2[nH]c1=O (stereo not drawn) [Compound 11]?
IC50 (TANK-2 enzyme): 79.4 nM; melting point: 152 °C

Which IC50 (TANK-2 enzyme) does the source give for CCc1cc2ccc(C(C)(C#N)Cc3cccc(NS(C)(=O)=O)c3)cc2[nH]c1=O (stereo not drawn) [Compound 14] here?
Its IC50 is 79.4 nM.

What about the melting point of the same compound?
The melting point was 80 °C.

With CCc1cc2ccc(C(C)(C#N)CCOc3cccc(C)c3)cc2[nH]c1=O (stereo not drawn) [Compound 143] as the compound, how does the IC50 (TANK-2 enzyme) read?
The IC50 was 158 nM.

What about the tubulin polymerisation score (tubulin) of the same compound?
Its tubulin polymerisation score is 2.

With CCc1cc2ccc(C(C)(C#N)Cc3ccc(C)cc3)cc2[nH]c1=O (stereo not drawn) [Compound 117] as the compound, how does the IC50 (TANK-2 enzyme) read?
The IC50 was 25.1 nM.

What about the tubulin polymerisation score (tubulin) of the same compound?
The tubulin polymerisation score was 2.

Which results are given for CCc1cc2ccc(C(C)(C#N)CCOc3ccccc3Cl)cc2[nH]c1=O (stereo not drawn) [Compound 152]?
IC50 (TANK-2 enzyme): 126 nM; tubulin polymerisation score (tubulin): 2

What does the source list for CCc1cc2ccc(C(C)(C#N)Cc3ccc(F)cc3F)cc2[nH]c1=O (stereo not drawn) [Compound 137]?
IC50 (TANK-2 enzyme): 63.1 nM; tubulin polymerisation score (tubulin): 1 (a compound showing 0 to 50% inhibition at 20 μM is reported as score 1)

With CCc1cc2ccc(C(C)(C#N)CCOc3ccccc3C)cc2[nH]c1=O (stereo not drawn) [Compound 148] as the compound, how does the IC50 (TANK-2 enzyme) read?
The IC50 was 100 nM.

What about the tubulin polymerisation score (tubulin) of the same compound?
The tubulin polymerisation score was 1 (a compound showing 0 to 50% inhibition at 20 μM is reported as score 1).

What does the source list for CCc1cc2ccc(C(C)(C#N)Cc3cccc(Cl)c3F)cc2[nH]c1=O (stereo not drawn) [Compound 130]?
IC50 (TANK-2 enzyme): 79.4 nM; tubulin polymerisation score (tubulin): 2
